Source: US10239918B2, “Cahuitamycins and methods of making and using the same” (THE REGENTS OF THE UNIVERSITY OF MICHIGAN, priority 2015, dated 2019)
Read-outs that look alike come from different tables or passages of the source.

How the values were obtained:
[1] = reference value used for the calculation; cited from earlier work
A. baumanii biofilm = experiment: confocal microscope imaging of biofilm on glass plate (SYTO 9 / propidium iodide); type: cell-based, Acinetobacter baumannii; conditions: glass plate treated with 240 nM
Description: (§1) Next, the specific stage of inhibition during biofilm formation was probed as well as the extent of inhibition through a flow cell assay. […] In addition, confocal microscope imaging analysis of the A. baumanii biofilm was conducted. In this assay, the biofilm was developed on a glass plate and left untreated as a control or treated with only 240 nM of 1 and 3. After treatment with STYO® 9 stain and propidium iodide (PI) the biofilm structure was observed.

A. baumannii growth = experiment: inhibition of A. baumannii growth; type: cell-based, Acinetobacter baumannii; conditions: for effect on bacterial growth: A. baumannii, apo form
[2] = test system: A. baumannii biofilm formation; experiment: static biofilm assay, crystal violet staining and optical density; type: cell-based, Acinetobacter baumannii ATCC 17978; conditions: for effect on biofilm formation: apo form; for IC50: Acinetobacter baumannii, read-out: IC50, inhibition of biofilm formation
Source text: In an effort to discover new antibiotics, a marine microbial-derived NPE library was screened to identify biofilm inhibitors in A. baumannii. Natural products accounts for the majority of currently marketed drugs,^10 and the marine environment represents a potential new source of unique chemical entities.^11 A crystal violet based high throughput assay was used to query against a library of 9,831 marine microbial derived NPEs in order to identify the extracts inhibiting biofilm formation as primary screen. The active extracts obtained in primary high-throughput screening were further prioritized by setting the inhibition threshold to 50% followed by a dose response assay, yielding 31 active NPEs.
Primarily, the static biofilm assay using 1-3 was conducted using crystal violet staining followed by optical density measurements (FIG. 3). […] However, loss of inhibition of biofilm over time can be directly attributed to the metal-complexed cahuitamycins.
A static biofilm assay was developed from a previously reported method.^10 The biofilm assay measures the adhesion of bacteria to the surface of polystyrene 384 well microtiter plates. Adherent cells are detected by staining with Crystal Violet and subsequent washing to remove nonadherent planktonic cells. Inhibitors of biofilm formation prevent the bacteria from adhering to the surface of the microtiter plate and reduce the amount of Crystal Violet retained after washing. Assay quantification was performed by OD600 absorbance measurement of the Crystal Violet stained biofilm. The assay was optimized for plate surface treatment, time, temperature, media, media concentration, Crystal Violet concentration, wash method, inhibitor sensitivity, and culture inoculum preparation.
The A. baumannii test strain (ATCC 17978) was maintained as a frozen stock at −80° C. in 20% glycerol. On the morning of the assay, 5 ml of Mueller Hinton II cation adjusted media (Becton Dickinson cat. 212322) was inoculated and grown at 37° C., 180 rpm shaking for 4-6 h. The culture was then diluted 1:50 and incubated an additional 2 h. The resulting cells were washed four times by centrifugation and resuspension of the pellet in media was performed to remove any metabolites or cell signaling factors. The assay inoculum was prepared by diluting the cells to 0.008 OD600 in 10% Mueller Hinton II cation adjusted media (diluted in 18 ohm deionized water). The assay plates (Corning cat. 3680, 384 well non-treated polystyrene) were prepared by dispensing 20 μl of 10% Mueller Hinton II cation adjusted media into columns 1-22 using a Multidrop Combi dispenser (ThermoFisher). The natural product extract samples were added as 0.2 μl of 15 mg/ml stocks in DMSO using a Biomek FX high density pintool (Beckman Coulter). Column 1 and 2 contained DMSO without natural product extracts and served as the negative control. The positive control was added to column 23 and 24 as 20 μl of 40 μM Baicalein (Sigma-Aldrich cat. 11712). The bacterial cells were added to the entire plate in 20 μl of the prepared inoculum using a Multidrop Combi dispenser (ThermoFisher). The resulting assay contained 40 μl of 10% Mueller Hinton II cation adjusted media with 0.004 OD600 bacterial cells, 0.5% DMSO, and 75 μg/ml natural product extract. The assay plates were incubated at 30° C. for 20 h, stationary, in a humidified incubator. The biofilm was stained by adding 10 μl of filtered 1% Crystal Violet and incubating for 30 minutes at room temperature. Excess Crystal Violet and nonadherent planktonic cells were removed by washing three times with 150 μl of PBS using an ELX405 plate washer (Biotek). The wash program used a low velocity dispense rate and an aspiration height of 3.8 mm; about 10 μl of PBS remained in the well after washing. The Crystal Violet stained biofilm was solubilized by the addition of 50 μl of 100% ethanol and allowed to develop overnight. Quantification was performed by measuring the OD600 absorbance using a Pherastar plate reader (BMG). […]

[3] = test system: A. baumannii ATCC 17978 biofilm; experiment: flow cell biofilm assay; type: cell-based, Acinetobacter baumannii ATCC 17978; conditions: 7.5 μg/ml in flow media
Description: as §1
Biofilms were formed by A. baumannii ATCC 17978 in flow chambers at room temperature. Images were taken at 1 h, 6 h and 24 h (by using a 60× lens) after inoculation. A flow cell biofilm was achieved by using a flow cell chamber (ACCFL0001, Life Science Incorporated, Greensboro, N.C.). Briefly, overnight cultures of A. baumannii ATCC 17978 grown in MHII broth at 37° C. were diluted 100 fold with fresh MHII broth. 1 ml of dilution was injected into a flow cell chamber and allowed to settle one hour for attaching of bacteria followed by initiation media flow. Flow media was 10% MHII broth (control), or 10% MHII broth with 7.5 μg/ml of desferoxamine, or MHII broth with 7.5 μg/ml of cahuitamycins A. The flow rate was 4 ml/hr. Micrographs of the biofilm were acquired at 1 h, 6 h and 24 h by using an Olympus IX70 microscope with 60× lens

[4] = competition titrations with EDTA to determine iron-binding affinity (pFeIII); type: physicochemical; conditions: competition titration of Fe-cahuitamycin complex with EDTA, Hepes buffer pH 7.4, UV-vis; three individual titrations
Description: Determination of pFe^III for cahuitamycins was carried out as reported by Abergel et al. J. Am. […] Briefly, purified Fe-cahuitamycins, prepared as described above, was dissolved in Hepes buffer (10 mM Hepes, 0.1 M KCl, pH 7.4) and five different concentration ranges of ETDA were added from EDTA stock solutions also prepared in HEPES buffer. Each reaction consisted of a total volume of 0.25 mL, a final concentration of 0.1 mM Fe-cahuitamycins and a range of 5-fold-8000-fold EDTA (relative to Fe-cahuitamycins) in Hepes buffer. The reaction was allowed to equilibrate at room temperature for at least 24 h, and UV-visible spectra were subsequently recorded. The composite spectra contain contributions from both Fe-EDTA and Fe-cahuitamycins. The ε of both species as a function of λ, were determined in Hepes buffer and used to deconvolute the spectra. The contribution of Fe-cahuitamycins was subtracted from the composite spectra using the 435 nm absorption band and the ε of both Fe-cahuitamycins and Fe-EDTA were used to quantify the proportion of each species in solution. Concentrations of apo-EDTA and apo-cahuitamycins were calculated by subtracting [Fe-EDTA] (or [Fe-cahuitamycins]) from total initial EDTA (or Fe cahuitamycins). The log [EDTA]/[cahuitamycins] was plotted against log [Fe-EDTA]/[Fe-cahuitamycins] and the data were fit to the following equation, which has been derived by Abergel et al., J. Am.

[5] = compound tested in iron-complexed form
[6] = static biofilm assay, A. baumannii

**Q.** For `O=C(O)CN(CCN(CC(=O)O)CC(=O)O)CC(=O)O` [EDTA], which “pFe^III (known stability constants for EDTA)” value [1] is on record?
**A.** The value was 23.42.

**Q.** With `O=CN(O)CCC[C@@H](NC(=O)[C@H](CO)NC(=O)[C@@H]1COC(c2ccccc2O)=N1)C(=O)N1NCCC[C@@H]1C(=O)NCCC(=O)O` [compound 1, Cahuitamycin A] as the compound, how does the “biofilm thickness compared with the control” value (A. baumanii biofilm) read?
**A.** The value was “much thinner biofilm”.

**Q.** What about the “total biomass compared with the control” value (A. baumanii biofilm) of the same compound?
**A.** The value was “significantly less total biomass”.

**Q.** And the “total biomass of biofilm” value (A. baumanii biofilm)?
**A.** The value was 0.18 μm^3.

**Q.** And the “impact on growth, iron-complexed form” value (A. baumannii growth; [5])?
**A.** Its value is “almost no impact”.

**Q.** What about the “impact on biofilm formation, iron-complexed form” value [2, 5] of the same compound?
**A.** The value was “almost no impact”.

**Q.** And the “effect on biofilm formation” value [2, 6]?
**A.** The value was “able to inhibit”.

**Q.** And the “biofilm state in flow cell after 6 h of supplementation” value [3]?
**A.** Its value is “only a few micro colonies”.

**Q.** And the “biofilm state in flow cell after 24 h of supplementation” value [3]?
**A.** Its value is “larger micro colonies and initiation of biofilm formation”.

**Q.** What about the “pFe^III” value [4] of the same compound?
**A.** Its value is 18.34±0.16.

**Q.** What does the source list for `O=CN(O)CCC[C@@H](NC(=O)[C@H](CO)NC(=O)[C@H](CO)NC(=O)c1ccccc1O)C(=O)N1NCCC[C@@H]1C(=O)NCCC(=O)O` [compound 2, Cahuitamycin B]?
**A.** effect on bacterial growth (A. baumannii growth): no effects; effect on biofilm formation [2, 6]: no effects; pFe^III [4]: 20.42±0.09

**Q.** Which “biofilm thickness compared with the control” value (A. baumanii biofilm) does the source give for `Cc1cccc(O)c1C1=N[C@H](C(=O)N[C@@H](CO)C(=O)N[C@H](CCCN(O)C=O)C(=O)N2NCCC[C@@H]2C(=O)NCCC(=O)O)CO1` [compound 3, Cahuitamycin C] here?
**A.** Its value is “much thinner biofilm”.

**Q.** And the “total biomass compared with the control” value (A. baumanii biofilm)?
**A.** Its value is “significantly less total biomass”.

**Q.** And the “total biomass of biofilm” value (A. baumanii biofilm)?
**A.** The value was 0.10 μm^3.

**Q.** And the “effect on bacterial growth” value (A. baumannii growth)?
**A.** Its value is “limited effect”.

**Q.** What about the IC50 [2, 6] of the same compound?
**A.** Its IC50 is 14.5 µM.

**Q.** What about the “pFe^III” value [4] of the same compound?
**A.** The value was 17.52±0.12.

**Q.** With `Cc1ccc(O)c(C2=N[C@H](C(=O)N[C@@H](CO)C(=O)N[C@H](CCCN(O)C=O)C(=O)N3NCCC[C@@H]3C(=O)NCCC(=O)O)CO2)c1` [compound 4, Cahuitamycin D] as the compound, how does the IC50 [2, 6] read?
**A.** The IC50 was 8.4 µM.

**Q.** What about the “potency as biofilm inhibitor compared to 3 (cahuitamycin C)” value ([2]; static biofilm assay) of the same compound?
**A.** The value was “almost twice the potency”.

**Q.** And the “potency as biofilm inhibitor compared to 3 (cahuitamycin C)” value ([2]; static biofilm assay, listed as cahuitamycin analog D)?
**A.** Its value is “twice as active”.

**Q.** For `O=CN(O)CCC[C@@H](NC(=O)[C@H](CO)NC(=O)[C@H](CO)NC(=O)c1ccccc1O)C(=O)N[C@H](CCCNO)C(=O)NCCC(=O)O` [compound 5, Cahuitamycin E], which IC50 [2] is on record?
**A.** Its IC50 is 10.5 µM.

**Q.** For `CC(=O)N(O)CCCCCNC(=O)CCC(=O)N(O)CCCCCNC(=O)CCC(=O)N(O)CCCCCN` [desferoxamine, reference compound], which “biofilm state in flow cell after 6 h of supplementation” value [3] is on record?
**A.** The value was “formation of a robust biofilm”.

**Q.** And the “biofilm state in flow cell after 24 h of supplementation” value [3]?
**A.** The value was “biofilm became thicker”.
